Measured values as given in patent US8362072B2, “BRCA1-based breast or ovarian cancer treatment agents and methods of use” (University of Kansas, priority 2007, dated 2013).

Assays:
human BRCA1 promoter = assay: BRCA1-luciferase reporter assay (Steady-Glo) in stably transfected MCF7 cells; assay type: cell-based; settings: for EC50 / EC90: Homo sapiens, MCF7-BRCA1-luciferase cells, dilution series; for EC50: MCF7, 48 h; for EC90 / BRCA1-luciferase activity (in words): 48 hours; for BRCA1-luciferase activity (in words): MCF7 pGL4.14-hBRCA1.3 cells
Description: Hygromycin selected MCF7 cells were seeded in 384-well tissue culture plates. The first two columns of each plate were empty so as to include established positive and negative controls. Each of the remaining 352 wells contained a compound to be screened. MCF7 cells were incubated with the compounds for 48 hours. Luciferase activity was measured using the Steady Glo Luciferase Assay System (Promega). Briefly, 5×10^6 MCF7 cells were transfected with […] of purified pGL4.14 containing the human BRCA1 promoter (pGL4.14-hBRCA) with Effectene as per manufacturers protocol (Qiagen). Stable transfectants were selected with […] Hygromicin B. 1×10^5 or 2×10^5 stable transfectants were tested for luciferase activity with the Steady-Glo Luciferase Assay System (Promega).
Hygromycin selected MCF-7 cells (e.g., MCF7 clone pGL4.14-hBRCA1.3) stably transfected with the human BRCA1-luciferase reporter construct (e.g., pGL4.14-hBRCA1.3) were seeded in 384-well white tissue culture plates (Becton Dickenson, San Diego, Calif.) at 1×10^4 cells/well. These cells were then stimulated with indicated concentrations of genistein (Sigma-Aldrich, St. Louis, Mo.) for 0, 6, 9, 24 and 48 hours. Luciferase activity was measured using the Steady Glo Luciferase Assay System (Promega). The data shown in FIG. 3A is representative of 3 individual experiments.
Two different chemical libraries were screened for the ability to enhance BRCA1 gene expression. To examine the effects of each compound on BRCA1 expression, the human BRCA1 promoter was cloned and inserted upstream of the firefly luciferase gene in the plasmid pGL4.14 (BRCA1-Luc) (Promega), as described above. The ER positive human breast cancer cell line, MCF7, was transfected and stable transfectants were selected with hygromycin.
Briefly, compounds were plated in a 384 well plate in a total volume of 20 μl. A ten point dilution series was used at concentrations—100 µM, 10 μM, 1 μM, 100 nM, 10 nM, 1 nM, 0.1 nM, 0.01 nM, 0.0001 nM, 0 (DMSO vehicle only). A second dilution series of 100 μM, 32.5 μM, […], 3.6 μM, 1.2 μM, 400 nM, 132.2 nM, 45 nM, 14.8 nM, 5 nM, and 1.65 nM was also used. MCF7-BRCA1-luciferase cells were added to the compounds at a concentration of 1×10^4 cells/well in a volume of 25 μl. The 384 well plates, containing the compounds+cells, were then incubated at 37° C. for 48 hours. After 48 hours, luciferase activity was measured with the Steady-Glo® Luciferase Assay System (Promega, Madison, Wis.).

MCF7 cells = assay: Cell viability of MCF7 cells (CellTiter 96 AQueous One); assay type: cell-based, human; settings: 48 hours
Description: Additionally, the compounds were tested for cell viability. Compounds were plated at 2× in 50 μl MEM in triplicate in a clear 96 well tissue culture plate. A ten point dilution series was used at concentrations—100 μM, 10 μM, 1 μM, 100 nM, […], 1 nM, 0.1 nM, 0.01 nM, 0.0001 nM, 0 (DMSO vehicle only). MCF7 cells (5×10^3) were added in a volume of 50 μl MEM to the appropriate wells, diluting the compounds to 1×. Cells were incubated at 37° C. for 48 hours. 20 μl of CellTiter 96® AQueous One Solution Reagent (Promega) was added to each well and incubated for 3 hours at 37° C. Absorbance was measured at 490 nm using the Perkin Elmer Victor 3V plate reader. Absorbance signals were normalized to DMSO vehicle control and were expressed as percent viable.

With `Oc1c(F)cccc1/C=N/c1ccc2oc(-c3ccccc3)nc2c1` [Cmpd 1] the EC50 (human BRCA1 promoter) was 6.82 µM, the EC90 (human BRCA1 promoter) was 54.9 µM and the “toxicity (cell viability) compared to genistein” value (MCF7 cells) was “less toxic compared to genistein”.
In the case of `CC(C)(C)C(=O)Nc1cccc(C(=O)Nc2ccc(Cl)cc2)c1` [Cmpd 2], the EC50 (human BRCA1 promoter) is reported as 70.5 µM, the EC90 (human BRCA1 promoter) is reported as 967 µM and the “toxicity (cell viability) compared to genistein” value (MCF7 cells) is reported as “less toxic compared to genistein”.
In the case of `Cc1cc(C(=O)Nc2ccc(N3CCOCC3)cc2)ccc1[N+](=O)[O-]` [Cmpd 3], the EC50 (human BRCA1 promoter) is reported as 8.73 µM, the EC90 (human BRCA1 promoter) is reported as 47.3 µM and the “BRCA1-luciferase activity (in words)” value (human BRCA1 promoter) is reported as “comparatively superior”.
Work on `COc1ccc(-c2nc3cc(C)ccc3o2)cc1N` [Cmpd 4] yielded an EC50 (human BRCA1 promoter) of 0.729 µM and an EC90 (human BRCA1 promoter) of 1.77 µM.
Work on `Fc1ccc(Nc2nc(-c3ccccc3)cs2)cc1` [Cmpd 5] yielded an EC50 (human BRCA1 promoter) of 11.6 µM and an EC90 (human BRCA1 promoter) of about 13.8 µM.
`Fc1ccc(-c2nnc(-c3ccc(F)cc3)o2)cc1` [Cmpd 6] showed an EC50 (human BRCA1 promoter) of 1.64 µM and an EC90 (human BRCA1 promoter) of 24.2 µM.
Compound `O=C(CSc1nc(=O)cc(O)[nH]1)c1ccccc1` [Cmpd 7] has an EC50 (human BRCA1 promoter) of 2060 µM and an EC90 (human BRCA1 promoter) of about 63700 µM.
With `N/C(=N\OC(=O)Cc1cccs1)c1ccc(Cl)cc1` [Cmpd 8] the EC50 (human BRCA1 promoter) was 2150 µM.
For `O=C(Nc1ccc(Cl)c(Cl)c1)c1ccccc1Br` [Cmpd 9], the EC50 (human BRCA1 promoter) was 1.3 µM, the EC90 (human BRCA1 promoter) was 10.1 µM and the “BRCA1-luciferase activity (in words)” value (human BRCA1 promoter) was “comparatively superior, but similar to Compound 8 and 10”.
In the case of `Cc1cccc(-c2noc(-c3cccs3)n2)c1` [Cmpd 10], the EC50 (human BRCA1 promoter) is reported as 0.218 µM and the EC90 (human BRCA1 promoter) is reported as 2.56 µM.
In the case of `O/N=C(\CSc1nc2ccccc2[nH]1)c1ccccc1` [Cmpd 11], the EC50 (human BRCA1 promoter) is reported as 6.77 µM, the EC90 (human BRCA1 promoter) is reported as 80.5 µM and the “BRCA1-luciferase activity (in words)” value (human BRCA1 promoter) is reported as “comparatively superior to Compound 13”.
`Cn1nnc(-c2ccc(OCc3ccccc3F)cc2)n1` [Cmpd 12] was tested, and the EC50 (human BRCA1 promoter) was 1.67 µM, the EC90 (human BRCA1 promoter) was 15.8 µM and the “BRCA1-luciferase activity (in words)” value (human BRCA1 promoter) was “comparatively superior to Compound 13”.
`COc1ccccc1OCC(=O)O/N=C(\N)c1ccccn1` [Cmpd 13] showed an EC50 (human BRCA1 promoter) of 69.6 µM and an EC90 (human BRCA1 promoter) of 377 µM.
`CC(C)c1ccc(OCC(=O)O/N=C(\N)c2ccncc2)c(Br)c1` [Cmpd 14] was tested, and the EC50 (human BRCA1 promoter) was 106 µM, the EC90 (human BRCA1 promoter) was 998 µM and the “BRCA1-luciferase activity (in words)” value (human BRCA1 promoter) was “comparatively superior to Compound 13”.
Compound `O=C(COc1cccc2cccnc12)N1CCc2ccccc21` [Cmpd 16] has an EC90 (human BRCA1 promoter) of about 38.8 µM.
Compound `Cc1ccc(C(=O)Nc2ccc3c(c2)oc2ccccc23)o1` [Cmpd 17] has an EC50 (human BRCA1 promoter) of 0.948 µM and an EC90 (human BRCA1 promoter) of 2.85 µM.
`Cc1[nH]n(-c2ccc([N+](=O)[O-])cc2)c(=O)c1/C=N/C1CCCC1` [Cmpd 18] showed an EC50 (human BRCA1 promoter) of 11.2 µM and an EC90 (human BRCA1 promoter) of 17.2 µM.
`CC(=O)c1cc(C#N)c(SC/C=C/c2ccccc2)nc1C` [Cmpd 19] gave an EC50 (human BRCA1 promoter) of 20.6 µM and an EC90 (human BRCA1 promoter) of 79.4 µM.
